Laboratory results taken from PubChem BioAssay AID1963986 (Molecular Pharmacology Branch, DTP, NCI, 2024).

System: 171881-019-R-J1-PDC tumor spheroid viability
Test: Anticancer human tumor 171881-019-R-J1-PDC patient-derived invasive breast carcinoma cell line growth inhibition [PI3K]
Conditions: spheroids with HUVEC and MSC; for viability, T/C: stronger effect = lower value; active = viability on the fitted dose curve at most 10% of control; inactive = the rest
Outline: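 Three cell types, namely tumor cells, endothelial cells and mesenchymal stem cells, formed each spheroid. Combinations with four PI3K inhibitors were screened at clinically achievable concentrations decreasing by half-log, and spheroid viability was recorded.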
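Note: spheroids exposed to compound for 7 days before viability read.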
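Throughout, for viability, T/C: 100% = DMSO vehicle-treated spheroids.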

CC(Cn1ccc(-c2ccc(C#N)c(Cl)c2)n1)NC(=O)c1cc(C(C)O)[nH]n1 (centres undefined) + Cc1nc(NC(=O)N2CCCC2C(N)=O)sc1-c1ccnc(C(C)(C)C(F)(F)F)c1
4160 nM: IC50 (curve of first compound, second compound 0.316 µM)
< 31.6 nM: IC50 (curve of first compound, second compound 1 µM) | IC50 (curve of first compound, second compound 3.16 µM) | IC50 (curve of first compound, second compound 10 µM)
inactive: viability, T/C (second compound 0.0316 µM, first compound 0.0316 µM) 101% | viability, T/C (second compound 0.0316 µM, first compound 0.1 µM) 85.3% | viability, T/C (second compound 0.0316 µM, first compound 0.316 µM) 87.7% | viability, T/C (second compound 0.0316 µM, first compound 1 µM) 93.7% | viability, T/C (second compound 0.0316 µM, first compound 3.16 µM) 85% | viability, T/C (second compound 0.0316 µM, first compound 10 µM) 62.8% | viability, T/C (second compound 0.1 µM, first compound 0.0316 µM) 74.8% | viability, T/C (second compound 0.1 µM, first compound 0.1 µM) 72.9% | viability, T/C (second compound 0.1 µM, first compound 0.316 µM) 81.3% | viability, T/C (second compound 0.1 µM, first compound 1 µM) 80% | viability, T/C (second compound 0.1 µM, first compound 3.16 µM) 75.6% | viability, T/C (second compound 0.1 µM, first compound 10 µM) 59.1% | viability, T/C (second compound 0.316 µM, first compound 0.0316 µM) 55.5% | viability, T/C (second compound 0.316 µM, first compound 0.1 µM) 55.3% | viability, T/C (second compound 0.316 µM, first compound 0.316 µM) 50.7% | viability, T/C (second compound 0.316 µM, first compound 1 µM) 57.7% | viability, T/C (second compound 0.316 µM, first compound 3.16 µM) 52.5% | viability, T/C (second compound 0.316 µM, first compound 10 µM) 40.3% | viability, T/C (second compound 1 µM, first compound 0.0316 µM) 34.4% | viability, T/C (second compound 1 µM, first compound 0.1 µM) 32.9% | viability, T/C (second compound 1 µM, first compound 0.316 µM) 33.4% | viability, T/C (second compound 1 µM, first compound 1 µM) 30.8% | viability, T/C (second compound 1 µM, first compound 3.16 µM) 30.5% | viability, T/C (second compound 1 µM, first compound 10 µM) 24.4% | viability, T/C (second compound 3.16 µM, first compound 0.0316 µM) 14.5% | viability, T/C (second compound 3.16 µM, first compound 0.1 µM) 13.7% | viability, T/C (second compound 3.16 µM, first compound 0.316 µM) 15.3% | viability, T/C (second compound 3.16 µM, first compound 1 µM) 13.1% | viability, T/C (second compound 3.16 µM, first compound 3.16 µM) 14.2% | viability, T/C (second compound 3.16 µM, first compound 10 µM) 11.9%
> 10000 nM: IC50 (curve of first compound, second compound 0.0316 µM) | IC50 (curve of first compound, second compound 0.1 µM)
active: viability, T/C (second compound 10 µM, first compound 0.0316 µM) 3.76% | viability, T/C (second compound 10 µM, first compound 0.1 µM) 3.6% | viability, T/C (second compound 10 µM, first compound 0.316 µM) 3.61% | viability, T/C (second compound 10 µM, first compound 1 µM) 3.9% | viability, T/C (second compound 10 µM, first compound 3.16 µM) 3.74% | viability, T/C (second compound 10 µM, first compound 10 µM) 3.87%

CC(=O)c1c(C)c2cnc(Nc3ccc(N4CCNCC4)cn3)nc2n(C2CCCC2)c1=O
> 100 nM: IC50 (curve of compound)
inactive: viability, T/C (compound 0.000316 µM) 91.8% [middle of 4 runs] | viability, T/C (compound 0.001 µM) 85.3% [middle of 4 runs] | viability, T/C (compound 0.00316 µM) 97% [middle of 4 runs] | viability, T/C (compound 0.01 µM) 99.2% [middle of 4 runs] | viability, T/C (compound 0.0316 µM) 108% [middle of 4 runs] | viability, T/C (compound 0.1 µM) 88.7% [middle of 4 runs]
